Reference: paper PMC10380488, “Cx43 Hemichannel and Panx1 Channel Modulation by Gap19 and ^10Panx1 Peptides” (International Journal of Molecular Sciences, 2023)
“And” between values parts separate entries of the source, which are not always exact repeats. Identical values can stand only once. “Also recorded” adds a separate entry of the source.

Key:
Cx43 or Panx1 channels = settings: 100 μM extracellular; HeLa cells expressing Cx43 or Panx1; cited from earlier work
Excerpt: (§1) Connexins and pannexins are two ubiquitous but distinct protein families forming membrane hemichannels (HCs) and channels in the plasma membrane, respectively. They facilitate the exchange of ions and small molecules (MW ≤ 1.5 kDa) between the intracellular and the extracellular compartment upon opening. Among these respective families, connexin-43 (Cx43) and pannexin-1 (Panx1) are the most abundant isotypes in the human body expressed in a wide array of tissues. Panx1 and Cx43 have several common properties, including the following: (i) an analogous tetra-spanning transmembrane topology with ...

Panx1 channels [1] = target: T1, Panx1 channels (Rattus norvegicus, UniProt P60570); settings: 200 µM extracellular; high extracellular K^+; cited from earlier work
T1 construct: expressed in transfected cells; host or cells: C6 glioma cells (C6-Panx1), gift of Dr Christian C; Naus
T1 sequence (P60570 whole entry): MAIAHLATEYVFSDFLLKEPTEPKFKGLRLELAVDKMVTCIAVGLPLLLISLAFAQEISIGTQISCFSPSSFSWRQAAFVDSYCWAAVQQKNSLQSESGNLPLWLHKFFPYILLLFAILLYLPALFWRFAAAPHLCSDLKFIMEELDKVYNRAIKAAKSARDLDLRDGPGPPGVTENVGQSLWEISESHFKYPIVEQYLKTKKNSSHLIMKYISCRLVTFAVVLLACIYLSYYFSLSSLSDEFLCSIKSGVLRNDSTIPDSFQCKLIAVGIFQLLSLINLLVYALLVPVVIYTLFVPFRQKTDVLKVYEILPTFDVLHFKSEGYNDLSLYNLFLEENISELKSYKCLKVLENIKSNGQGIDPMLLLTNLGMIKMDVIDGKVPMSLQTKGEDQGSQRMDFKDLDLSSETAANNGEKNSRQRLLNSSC
Excerpt: as §1

Cx43 HCs [2] = settings: cited from earlier work
Excerpt: However, this concentration decreases the NPo of Cx43 HCs by ~83% (Figure 2B; for traces, see Figure 3).

Panx1 channels [3] = target: T1, Panx1 channels; test: Whole-cell patch-clamp, unitary Panx1 channel current activity in C6-Panx1 cells; assay type: cell-based; settings: for nominal open probability (NPo) of Panx1 channels: C6-Panx1, step −30 to +70 mV, 30 s, mean ± SEM, control 0.37 ± 0.02
Excerpt: (§2) We used HeLa cells stably transfected with Cx43 (HeLa-Cx43 [56]); endogenous expression of Panx1 is very low or absent in non-transfected HeLa cells. C6 glioma cells stably transfected with Panx1 (C6-Panx1, C-terminally myc-tagged; kind gift of Dr Christian C. Naus, University of British Columbia, Canada) were used for the Panx1 channel studies; Cx43 expression is low or undetectable [61] in these cells. HeLa cells were maintained in Dulbecco’s modified Eagle’s medium (DMEM; Invitrogen, Gent, Belgium), and C6 cells were grown in DMEM:Ham’s F12 (1:1—Invitrogen, Merelbeke, Belgium), all supplemented with 10% fetal bovine serum (FBS), 2 mM glutamine, 10 U/mL penicillin, 10 µg/mL streptomycin and 0.25 µg/mL fungizone. Stable exogenous expressions were maintained by supplementation of 1 and 3 µg/mL puromycin (Sigma-Aldrich, Bornem, Belgium) for HeLa-Cx43 and C6-Panx1 cells, respectively. Stable transfectants were subcultured into puromycin-free medium 2 days prior to experimentation. Cells were maintained at 37 °C and 10% (HeLa-Cx43) or 5% (C6-Panx1) CO2.
(§3) All experimental data were obtained with the patch-clamp technique in whole-cell recording mode on HeLa-Cx43 and C6-Panx1 cells. Extracellular solution was composed of the following (in mM): 150 NaCl, 4 CsCl, 2 CaCl2, 2 MgCl2, 2 pyruvic acid, 5 glucose and 5 HEPES at pH of 7.4, while the pipette solution consisted of the following (in mM): 125 CsCl, 10 sodium aspartate (NaAsp), 0.26 CaCl2, 1 MgCl2, 2 EGTA, 10 tetraethylammonium (TEA)-Cl and 5 HEPES at pH 7.2. The free Ca^2+ concentration of the pipette solution was estimated to be ~50 nM as calculated with WEBMAX (https://somapp.ucdmc.ucdavis.edu/pharmacology/bers/maxchelator/webmaxc/webmaxcS.htm; accessed on 20 September 2020). Whole-cell recording was performed under control conditions and in the presence of Gap19 or ^10Panx1. Gap19 was included in the pipette solution, while ^10Panx1 was added externally and preincubated for 45 min. Recordings were commenced 2 min after establishment of the whole-cell configuration. Currents were recorded with an EPC 7 PLUS patch-clamp amplifier (HEKA Elektronik, Germany). Unitary current activities were elicited by stepping the cells from a holding potential of −30 mV to a membrane potential (Vm) of +70 mV for 30 s. Data were digitized at 4 KHz using an NI USB-6221 data acquisition device (National Instruments, Austin, TX, USA) and WinWCP acquisition software designed by Dr. J. Dempster (University of Strathclyde, United Kingdom). Measured currents were filtered by a 7-pole Bessel low-pass filter at 1 KHz cut-off frequency. Transition analysis was performed as reported in [16]. Unitary channel conductances were determined from transition histograms as well as from all-point histograms and were obtained by fitting their frequencies to Gaussian distributions. Channel opening activity is expressed as nominal open probability NPo, denoting the number of active channels in the patch multiplied by the open probability.
(§4) Data were processed using Clampfit version 11.2 (Molecular Devices, San Jose, USA) and HemiGUI software as previously described. Results are expressed as mean ± SEM (unless otherwise stated), with n giving the number of traces, N the number of cells, and N the number of experiments on different cell culture dishes. Multiple groups were compared by one-way analysis of variance with post-hoc Dunnett’s or Bonferroni multiple comparison tests, making use of GraphPad PRISM 5.0 (GraphPad Software, Inc., La Jolla, CA). Results were considered statistically significant when p ≤ 0.05 (*; # for p ≤ 0.05, **; ## for p ≤ 0.01, ***; ### for p ≤ 0.001, and ****; #### for p ≤ 0.0001).

Cx43 C-terminal tail = settings: cited from earlier work
Cx43 HCs [4] = test: Whole-cell patch-clamp, unitary Cx43 hemichannel current activity in HeLa-Cx43 cells; assay type: cell-based; settings: for nominal open probability (NPo) of Cx43 HCs: HeLa-Cx43, step −30 to +70 mV, 30 s, mean ± SEM, control 0.48 ± 0.02; for conductance γ of Cx43 HC, subconductance state, transition histogram / unitary conductance γ of Cx43 HC, fully open state, transition histogram: Figure 3B, mean ± SD
Excerpt: as §2, §3, §4

[5] = 100 μM Gap19 intracellular, N = 12, n = 98
[6] = 200 μM Gap19 intracellular, N = 15, n = 122

Sequence: KQIEIKKFK [Gap19]
- selectivity for Cx43 or Panx1 channels (Cx43 or Panx1 channels): good selectivity
- effect on ATP release from Panx1-overexpressing cells (Panx1 channels [1]): does not affect ATP release
- effect on Cx43 HC gating (Cx43 HCs [2]): gating modifier
- effect on Panx1 channels (Panx1 channels [3]; 100 μM Gap19 intracellular): without affecting the Panx1 channels
- nominal open probability (NPo) of Panx1 channels (Panx1 channels [3]; 100 μM Gap19 intracellular (pipette), N = 12 cells, n = 76 traces): 0.34 ± 0.03
- nominal open probability (NPo) of Panx1 channels (Panx1 channels [3]; 200 μM Gap19 intracellular (pipette), N = 9 cells, n = 70 traces): 0.30 ± 0.03
- effect on open-state events of Panx1, all-point histograms (Panx1 channels [3]; 200 µM Gap19 intracellular, Figure 1C): some effect; also recorded: to some extent
- nominal open probability (NPo) of Panx1 channels (Panx1 channels [3]; 500 μM Gap19 intracellular (pipette), N = 10 cells, n = 87 traces): 0.28 ± 0.03
- reduction of NPo of Panx1 channels (Panx1 channels [3]; 500 μM Gap19 intracellular, vs control, significant): ~ 25% and 26%
- effect on Panx1 channel activity (NPo) (Panx1 channels [3]; 100 and 200 μM Gap19 intracellular (below 500 μM)): did not significantly affect the NPo of the Panx1 channel; also recorded: non-significant effects on Panx1 channel activity; also recorded: without affecting Panx1 channel function; also recorded: No Effect below 500 µM
- fast-flickering closures of Panx1 channel (Panx1 channels [3]; traces of Panx1 channel activity (Supplementary Figure S2)): not observed
- interaction with the Cx43 C-terminal tail (Cx43 C-terminal tail): interacts with the Cx43 C-terminal tail
- reduction of NPo of Cx43 HCs (Cx43 HCs [4]; 100 μM Gap19 intracellular): significantly reduces the NPo of Cx43 HCs; also recorded: more than halved the NPo
- nominal open probability (NPo) of Cx43 HCs (Cx43 HCs [4]; 100 μM Gap19 intracellular (pipette), N = 12 cells, n = 98 traces): 0.21 ± 0.02
- nominal open probability (NPo) of Cx43 HCs (Cx43 HCs [4]; 200 μM Gap19 intracellular (pipette), N = 15 cells, n = 122 traces): 0.18 ± 0.02
- nominal open probability (NPo) of Cx43 HCs (Cx43 HCs [4]; 500 μM Gap19 intracellular (pipette), N = 12 cells, n = 88 traces): 0.08 ± 0.01
- reduction of NPo of Cx43 HCs (Cx43 HCs [4]; 500 μM Gap19 intracellular, vs control): 84%
- conductance γ of Cx43 HC, subconductance state, transition histogram (Cx43 HCs [4]; [5]): 86 ± 31 pS
- unitary conductance γ of Cx43 HC, fully open state, transition histogram (Cx43 HCs [4]; [5]): 201 ± 50 pS
- conductance γ of Cx43 HC, subconductance state, transition histogram (Cx43 HCs [4]; [6]): 87 ± 27 pS
- unitary conductance γ of Cx43 HC, fully open state, transition histogram (Cx43 HCs [4]; [6]): 201 ± 45 pS
- conductance γ of Cx43 HC, all-point histogram (Cx43 HCs [4]; Figure 3C, 100 μM Gap19 intracellular): 204 ± 46 pS
- inhibition of Cx43 HC opening activity (in words) (Cx43 HCs [4]; Gap19 intracellular / ^10Panx1 extracellular, 100-500 μM (Gap19 100–200 μM)): Inhibited; also recorded: concentration-dependent and significant inhibition; also recorded: concentration-dependently inhibits Cx43 HCs; also recorded: significantly inhibits Cx43 HCs
- effect on Cx43 HC gating (fully open state vs subconductance state) (Cx43 HCs [4]; Gap19 intracellular / ^10Panx1 extracellular, from 100 µM): reduced the frequency of transitions to the fully open state and increased the propensity of subconductance transitions starting from 100 µM; also recorded: increased gating to the subconductance state; also recorded: acts as a gating modifier, reducing transitions to the fully open state (~210 pS) while increasing the number of transitions to the subconductance state (~80 pS
